Results taken from ChEMBL document CHEMBL1201862, “PubChem BioAssay data set” (2004).
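Five compound concentrations were applied to cells in 96-well plates for 48 hours; endpoints were derived by simple linear interpolation of the resulting dose-response curve. GI50: concentration for 50% inhibition of growth.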 Calls of active or inactive are those of the source. Cut-off read from the data, not from the text of the source: active = GI50 up to about 1.1 µM and inactive = higher. Residues, ends and D or L forms follow the SMILES beside them. *: point of attachment. Boc = CC(C)(C)OC(=O)*; Bz = O=C(c1ccccc1)*

What was measured:
Assay in all cases: NCI anticancer screen, dose series, 48 h
[1] = test system: T47D
[2] = test system: NCI/ADR-RES
[3] = test system: SK-MEL-28
[4] = test system: SK-MEL-5
[5] = test system: UO-31
[6] = test system: NCI-H522
[7] = test system: SN12C
[8] = test system: IGROV-1
[9] = test system: HOP-62
[10] = test system: COLO 205
[11] = test system: OVCAR-8
[12] = test system: RPMI-8226
[13] = test system: BT-549
[14] = test system: U-251
[15] = test system: SW-620
[16] = test system: MDA-MB-231
[17] = test system: 786-0
[18] = test system: CAKI-1
[19] = test system: HT-29
[20] = test system: K562

Measured: GI50

NCCC1CN(C(=O)OCc2ccccc2)c2ccccc21 (stereo not given)
inactive: [1] 3.13 µM | [2] 15.1 µM | [3] 18.6 µM | [4] 11.2 µM | [5] 12.7 µM | [6] 14.5 µM | [7] 13.2 µM | [8] 9.48 µM | [9] 23.1 µM | [10] 16.3 µM | [11] 8.17 µM | [12] 12.8 µM | [13] 16.8 µM | [14] 14.3 µM | [15] 6.67 µM | [16] 19.1 µM | [17] 16.1 µM | [18] 21.4 µM | [19] 12.5 µM | [20] 4.58 µM

Oc1c(O)c(Cc2ccccc2)c(Cc2ccccc2)c(Cc2ccccc2)c1Cc1ccccc1
inactive: [1] > 10 µM | [2] > 10 µM | [3] > 10 µM | [4] > 10 µM | [5] > 10 µM | [6] > 10 µM | [7] > 10 µM | [8] > 10 µM | [9] > 10 µM | [10] > 10 µM | [11] > 10 µM | [12] > 10 µM | [13] > 10 µM | [14] > 10 µM | [15] > 10 µM | [16] > 10 µM | [17] > 10 µM | [18] > 10 µM | [19] > 10 µM | [20] > 10 µM

O=C(O)/C=C/C(=O)N1Cc2cc3ccccc3nc2C1
inactive: [1] > 100 µM | [2] > 100 µM | [3] > 100 µM | [4] > 100 µM | [5] > 100 µM | [6] > 100 µM | [7] > 100 µM | [8] > 100 µM | [9] > 100 µM | [10] > 100 µM | [11] > 100 µM | [12] > 100 µM | [13] > 100 µM | [14] > 100 µM | [15] > 100 µM | [16] > 100 µM | [17] > 100 µM | [18] > 100 µM | [19] > 100 µM | [20] > 100 µM

Cc1c2c(OCC(O)CN3CCN(c4ccccc4)CC3)nn(C)c(=O)c2c(C)n1-c1ccccc1 (stereo not given)
inactive: [1] 27.5 µM | [2] 24.6 µM | [3] 18.4 µM | [4] 16.6 µM | [5] 18.9 µM | [6] 20.6 µM | [7] 18.5 µM | [8] 35.2 µM | [9] 39.6 µM | [10] 20.3 µM | [11] 33 µM | [12] 21.6 µM | [13] 21.9 µM | [14] 16.6 µM | [15] 29.9 µM | [16] 25.6 µM | [17] 18.8 µM | [18] 31.6 µM | [19] 22.7 µM | [20] 27 µM

CC(NC(=O)C(Cc1ccc(OC(=O)c2ccccc2)cc1)NC(=O)OC(C)(C)C)C(=O)NC(Cc1ccccc1)C(=O)NCC(N)=O (stereo not given) (Boc-Y(Bz)AFG-NH2; configuration not given here)
inactive: [1] 20.9 µM | [2] > 100 µM | [3] 28.7 µM | [4] 26.3 µM | [5] 18.8 µM | [6] 17.9 µM | [7] 21.1 µM | [8] 20.4 µM | [9] 14.9 µM | [10] 29.1 µM | [11] 24.7 µM | [12] 24 µM | [13] 19 µM | [14] 17.8 µM | [15] 31.1 µM | [16] 19.4 µM | [17] 20.3 µM | [18] > 100 µM | [19] 19.1 µM | [20] 25.8 µM
